Assay results taken from patent US20210308131A1, “Treatment Regimen” (GlaxoSmithKline Intellectual Property Development Limited, priority 2020, published 2021).

Experiments:
[1] = tested on: NG isolate from the Phase 2 clinical trial with ParC D86N mutation; assay type: cell-based, Neisseria gonorrhoeae
Description: 10 mL of an initial bacterial density of 10^6 colony forming units (CFU)/mL was inoculated into the hollow-fiber cartridge (Fibercell Systems, Frederick, Md.), utilizing modified FB medium.
Samples were collected for observation of simulated pharmacokinetic profiles and enumeration of bacterial burden over the study duration. All bacterial samples were plated on drug-free and agar supplemented with 2×the agar MIC value of each respective challenge compound.

[2] = Plasma and pulmonary (ELF, AM) pharmacokinetics after intravenous gepotidacin in healthy adult subjects; assay type: in vivo, human; conditions: single IV infusion 1000 mg over 2 hours
Description: (§1) Gepotidacin exposures were assessed in plasma and other matrices, such as urine, saliva, epithelial lining fluid (ELF), Alveolar Macrophages (AM), cervix, rectum and pharynx, as follows: • 1. […] Urine, plasma, cervix, rectum and pharynx swabs: • In a Phase 2a, single-center, single-arm, open-label study in the Unites States from July 2018 to January 2019 (see Overcash et al., Open Forum Infectious Diseases, Volume 6, Issue Supplement 2, October 2019, Page S539, https://doi.org/10.1093/ofid/ofz360.1343, incorporated herein by reference in its entirety), a total of 22 female participants with uncomplicated Urinary Tract Infection (uUTI) were enrolled and evaluated for pharmacokinetics (PK), safety, and clinical efficacy. […] Gepotidacin exposures in urine, cervix, rectum and pharynx were assessed.
Plasma, Epithelial Lining Fluid (ELF) and Alveolar Macrophage (AM) PK were assessed following a single IV infusion of 1000 mg gepotidacin over 2 hours. […]

[3] = Single-dose PK (saliva, urine, plasma) in subjects with renal impairment and matched controls; assay type: in vivo, human
Description: Gepotidacin exposures were assessed in plasma and other matrices, such as urine, saliva, epithelial lining fluid (ELF), Alveolar Macrophages (AM), cervix, rectum and pharynx, as follows: • 1. Plasma, Epithelial Lining Fluid (ELF) and Alveolar Macrophage (AM) samples: A study to evaluate plasma and pulmonary pharmacokinetics (PK) following intravenous administration of gepotidacin in healthy adult subjects was conducted (see M Hossain, EF Dumont. Population Pharmacokinetic Modeling of Plasma and Epithelial Lining Fluid Data for a Novel Antimicrobial Compound. 54th Annual Interscience Conference on Antimicrobial Agents and Chemotherapy Meeting, 5-9 September 2014, Washington, D.C., USA, incorporated herein by reference in its entirety) • 2. Saliva, Urine and plasma samples: • a. A single-dose study to assess the PK of oral gepotidacin in male and female adult participants with varying degrees of hepatic impairment and in matched control participants with normal hepatic function (J. Hands et al. Pharmacokinetics of Gepotidacin in Subjects with Hepatic Impairment. ID Week, 2-6 Oct. 2019, Washington D.C., USA, incorporated herein by reference in its entirety) • b. A single-dose study to assess the PK of gepotidacin in adult subjects with varying degrees of renal impairment and in matched control subjects with normal renal function • 3. Urine, plasma, cervix, rectum and pharynx swabs: • In a Phase 2a, single-center, single-arm, open-label study in the Unites States from July 2018 to January 2019 (see Overcash et al., Open Forum Infectious Diseases, Volume 6, Issue Supplement 2, October 2019, Page S539, https://doi.org/10.1093/ofid/ofz360.1343, incorporated herein by reference in its entirety), a total of 22 female participants with uncomplicated Urinary Tract Infection (uUTI) were enrolled and evaluated for pharmacokinetics (PK), safety, and clinical efficacy. Participants were confined to the clinic from baseline (Days −1 to 1 predose) through on-therapy (Days 1 to 5) and returned as outpatients for test-of-cure (TOC; Days 10 to 13) and follow-up (Day 28±3). Participants received oral gepotidacin 1,500 mg twice daily (BID) for 5 days. […] The majority of participants were white, age ranged from 19 to 60 years, and body mass index ranged from 20.9 to 37.9 kg/m^2. The number of past uUTI episodes ranged from 0 to 10 over the past 12 months across participants; the majority of participants reported episodes. […] Gepotidacin exposures in urine, cervix, rectum and pharynx were assessed.
(§2) Saliva, Urine and Plasma concentrations were determined after administration of gepotidacin 750 mg IV (healthy and renally impaired subjects) and 1500 mg orally (healthy and hepatically impaired subjects, as well as uUTI patients). […]

[4] = Single-dose PK (saliva, urine, plasma) in participants with hepatic impairment and matched controls; assay type: in vivo, human; conditions: 1500 mg orally
Description: as §1, §2

[5] = Phase 2a study in female participants with uUTI: urine, plasma, cervix, rectum and pharynx swab PK and safety; assay type: in vivo, human
Description: as §1, §2

[6] = Safety and pharmacokinetics in healthy adults and adolescents (Example 3); assay type: in vivo, human
Description: Healthy adults and adolescents within the age ranges of 19-64 and 12-17 years old, respectively, participated in the study.
In Part 1 of the study, gepotidacin was administered with food to healthy adults 18 years) in period 1 (1500 mg oral single dose), followed by period 2 (3000 mg×2 oral doses Q12 h) and period 3 (3000 mg×2 oral doses Q6 h).
In Part 2 of the study, gepotidacin was administered with food to adolescents (12 to <18 years) at the same dose regimens as period 1 (1500 mg oral single dose) and period 3 (3000 mg×2 oral doses Q6 h).

Neisseria gonorrhoeae = conditions: cited from earlier work
[7] = Period 1, 1500 mg oral single dose

SMILES: CO/N=C(\C(=O)N[C@@H]1C(=O)N2C(C(=O)O)=C(CSc3nc(=O)c(=O)[nH]n3C)CS[C@H]12)c1csc(N)n1 [ceftriaxone, reference compound]
- performance of control in hollow fibre infection model ([1]; simulated ciprofloxacin 0.5 g oral, ceftriaxone 0.25 g intramuscular, isolate ciprofloxacin-resistant, ceftriaxone-susceptible): performed as expected

SMILES: O=c1ccc2ncc(=O)n3c2n1C[C@H]3CN1CCC(NCc2cc3c(cn2)OCCC3)CC1 [gepotidacin, (2R)-2-({4-[(3,4-Dihydro-2H-pyrano[2,3-c]pyridin-6-ylmethyl)amino]-1-piperidinyl}methyl)-1,2-dihydro-3H,8H-2a,5,8a-triazaacenaphthylene-3,8-dione]
- AM AUC(0-12) relative to ELF [2]: ~97 fold
- AM Cmax relative to ELF [2]: approximately 120 fold
- gepotidacin dose removed in the urine (fe %) ([3]; ESRD subjects not on hemodialysis): 7.9%
- gepotidacin dose excreted in the urine ([3]; ESRD subjects on hemodialysis): Less than 2%
- gepotidacin dose removed in the urine (fe %) ([3]; moderate renal impairment subjects): 22.1%
- gepotidacin dose removed in the urine (fe %) ([3]; normal renal function subjects): 37.4%
- urinary exposure (AUC[0-48]) relative to matched healthy controls ([4]; moderate hepatic impairment): approximately 3.2 fold
- urinary exposure (AUC[0-48]) relative to matched healthy controls ([4]; severe hepatic impairment): ~3.9 fold
- rank order of gepotidacin free-drug concentrations ([5]; 1500 mg BID, uUTI patients, swabs and plasma): highest in rectal tissue; followed by cervical tissue, which was similar to plasma concentrations; followed by pharyngeal tissue
- discontinuations due to adverse events ([5]; oral 1,500 mg BID for 5 days, 22 female uUTI participants): no discontinuations due to adverse events
- doses preventing amplification of resistance within the system ([1]; gepotidacin-resistant subpopulation on Day 7): 4.5 g
- total daily doses that prevented resistance amplification to gepotidacin ([1]; including 2 x 3 g doses 8 or 12 hours apart): ≥ 4500 mg
- doses sterilizing the system over the seven-day period ([1]; simulated single oral dose free-drug plasma profiles, 0.75 to 12 g): ≥ 4.5 g
- tolerability ([6]; 1500 mg oral single dose, adults and adolescents, few mild GI AEs): generally well tolerated
- maximum concentration (Cmax), adolescents compared to adults [6, 7]: similar
- median area under the curve (AUC), adolescents compared to adults [6, 7]: slightly higher
- AUC following the second dose, adolescents versus adults ([6]; Period 3, 3000 mg x 2 Q6 h): higher
- Cmax following the second dose, adolescents versus adults ([6]; Period 3, 3000 mg x 2 Q6 h): similar
- subjects above the Cmax value of potential clinical concern ([6]; adolescents, 3000 mg x 2 Q6 h): 58%
- AUC0-t following the first dose, Q12 h versus Q6 h ([6]; adults, 3000 mg): similar
- accumulation ratios, Q6 h compared to Q12 h ([6]; adults, 3000 mg x 2): Higher
- subjects above the Cmax value of potential clinical concern ([6]; adults, 3000 mg x 2 Q6 h): 46%
- subjects above the Cmax value of potential clinical concern ([6]; adults, 3000 mg x 2 Q12 h): 15%
- safety issues related to QT or AchE-I ([6]; in vivo): No observed safety issues related to QT or AchE-I
- microbiological successes (bacterial eradication) (Neisseria gonorrhoeae; number of the 8 participants with D86N-positive baseline urogenital NG isolates): 5
- efficacy (bacterial eradication) against urogenital infection caused by NG (Neisseria gonorrhoeae; single oral doses of 1.5 g and 3 g): ≥ 95%
- safety signals (Neisseria gonorrhoeae; single oral doses of 1500 and 3000 mg): no unexpected safety signals
- participants who failed therapy at the urogenital body site (Neisseria gonorrhoeae; total number, single oral 1500 or 3000 mg): 3
